Measurements published in patent publication US11578110B2, “Compounds for inducing tissue formation and uses thereof” (HISTIDE AG, priority 2015, dated 2023).
No end group written: not given here.

Each sequence was assayed on hMSCs (assay: Chondrocyte differentiation of hMSCs on modified hydrogels (Sox9, Aggrecan)). Conditions: 96 hours, hydrogel 14 kPa covalently modified.
Assay type: cell-based, Human
Experimental: Total RNA was extracted by using the RNeasy total RNA kit (Qiagen®) according to the manufacturer's instructions. Purified total RNA was used as a template in order to make cDNA by a reverse transcription reaction (Gibco Brl®) with random primers (Invitrogen®). The cDNA was then used as a template for a real-time PCR amplification in the presence of SYBR green reagents (Bio-Rad®) by using a thermocycler (iCycler, Biorad®). Data were analyzed with the iCycler IQ™® software and compared by the ΔΔCt method. Briefly, the mean Ct value of the target gene was normalized to its averaged Ct values of the housekeeping gene (HPRT) to give a ΔCt value, which was then normalized to a control sample to obtain a ΔΔCt value.
Total RNA was extracted by using the RNeasy Mini Kit (Qiagen) and […] RNA was used for cDNA synthesis with AMV kit (Invitrogen®) according to the manufacturer' instructions. Semi-quantitative reverse transcriptase-polymerase chain reaction (RT-PCR) was performed with Taq DNA Polymerase (Invitrogen®) in a thermocycler (Bio-Rad®). The cDNA input was normalized to […] (HPRT). The PCR products were analyzed on 2% agarose gels. For the Aggrecan gene, the PCR bands were densitometrically quantified by using the BioCapt software (Vilber). Values were normalized to HPRT, and results were reported as relative gene expression.
For that a semi-quantitative RT-PCR was performed as described in the Methods section for the Aggrecan gene and a Quantitative Real Time PCR for Sox9.

In the case of AVPKASSAPTKLEPLPIVYY [SEQ ID NO: 36], the “expression of the Sox9 protein” value is reported as “observed”.
In the case of KIPKASSVSQELEPLTILYY [SEQ ID NO: 37], the “expression of the Sox9 protein” value is reported as “observed”.

Same assay, conditions: 96 hours, hydrogel 14 kPa covalently modified, semi-quantitative RT-PCR

With AVPKASSAPTKLEPLPIVYY [SEQ ID NO: 36] the Aggrecan gene expression was “increased expression”.
For KIPKASSVSQELEPLTILYY [SEQ ID NO: 37], the Aggrecan gene expression was “increased expression”.

The sequences below were run on Human Hematopoietic Stem Cells (assay: CD-34+ stemness marker expression (immunostaining, ImageJ quantification)). Conditions: peptides grafted on a PET surface; 48 hours.
Assay type: cell-based

Point of comparison: “AASKASSVPTKMEPISTLYL (GFR-binding peptide) [SEQ ID NO: 1078]”, “CD34+ Expression” value 30%. Against it:
- AASKASSAPTKMSPINILYF (GFR-binding peptide) [SEQ ID NO: 1079] — the same, 30%
- AASKASSSRVEESATSTLYY (GFR-binding peptide) [SEQ ID NO: 1075] — lower, 28%
- AASKASSVPAKMRPVQTRKI (GFR-binding peptide) [SEQ ID NO: 1085] — lower, 19%
- AASKASSVPQQLSSLSTLFF (GFR-binding peptide) [SEQ ID NO: 1073] — lower, 29%
- KIPKASSTPTGQSNITMQIM (GFR-binding peptide) [SEQ ID NO: 1082] — lower, 18%
- KIPKASSTPTRLRSVKMAKV (GFR-binding peptide) [SEQ ID NO: 1083] — lower, 17%
- KIPKASSVPEELEPLPTVYY (GFR-binding peptide) [SEQ ID NO: 1081] — higher, 33%
- KIPKASSVPTKMRPVQMRKI (GFR-binding peptide) [SEQ ID NO: 1084] — lower, 18%
- RVPSTSSAPVEESPISTLYI (GFR-binding peptide) [SEQ ID NO: 1076] — lower, 27%
- RVPSTSSTPTKMKPLSILYV (GFR-binding peptide) [SEQ ID NO: 1080] — higher, 31%
- RVPSTSSTQVRLSPISMLFI (GFR-binding peptide) [SEQ ID NO: 1077] — lower, 24%
- RVPSTSSVPQQLNAISTLYF (GFR-binding peptide) [SEQ ID NO: 1074] — higher, 32%
- RVPSTSSVPTDLSSLSILFF (GFR-binding peptide) [SEQ ID NO: 1072] — lower, 26%
- RVPSTSSVPTELSAISVLYL (GFR-binding peptide) [SEQ ID NO: 1071] — lower, 29%

What follows are sequences tested on hMSCs (assay: STRO-1 stemness marker expression in hMSCs (immunostaining, ImageJ quantification)). Conditions: SEQ ID NO: 1 to 49 tested in combination with a bioactive carrier (titanium, ceramics, PEEK, hydrogel, etc.).
Assay type: cell-based, Human
Experimental: The cells were first fixed for 20 min with 4% paraformaldehyde/PBS at 4° C. After fixation, the cells were permeabilized in PBS containing 1% Triton X-100 for 15 min. Runx2, Osterix, Stro-1, Vinculin, Phalloidin, Osteopontin, Sox2, Sox9 antibodies were visualized by treating the cells with 1% (v/v) specific monoclonal antibodies for 1 hour at 37° C. Then the samples were incubated with Alexa fluor® 568 or 647 (F(ab′)2 fragment of IgG(H+L)) during 30 min at room temperature. The cell nuclei were counterstained in 20 ng/mL DAPI for 10 min at room temperature.
For this type of quantification the freeware image analysis ImageJ® software was used. The raw image was first converted to an 8-bit file, and then the unsharp mask feature was used (settings 1:0.2) to remove the image background (rolling ball radius 10). After smoothing, the resulting image, which appears similar to the original photomicrograph but with minimal background, was then converted to a binary image by setting a threshold. Threshold values were determined empirically by selecting a setting, which gave the most accurate binary image for a subset of randomly selected photomicrographs. The cell area was determined by manual delineation on raw fluorescent images. Total contact area and mean contact area per cell were calculated by “analyse particles” in ImageJ®. A minimum of 30 cells per condition were analyzed. Stro-1, CD-34+, and CD-105 expressions were determined using this procedure.
hMSCs were cultured on conventional cell culture plastic plates with or without the presence in the cell culture media of different GFR-binding compounds as defined hereins (SEQ ID NO: 50 to 104) in solution. […] This was probed by Stro-1 immunostaining after cell fixation as described in the Methods section. The quantification of Stro-1 positive contact numbers and areas was performed as described in the Methods section. A minimum of 30 cells per condition were analyzed.
RMSD values are always calculated for a GFR-binding peptide sequence exempt from any bioactive-carrier-affinity-containing group as defined herein (e.g. cysteine, WWFWG, GTPGP, etc. . . . ). When needed i.e. when attachment to a bioactive carrier is contemplated, the bioactive-carrier-affinity-containing group is then present in the GFR-binding compound when it is biologically tested. Using the method detailed in the description, the RMSD of 57 previously reported peptide sequences have been determined (Table 6) and correlated with the expression of STRO-1 after grafted on a PET surface via a procedure as already described above. […] One should note that it is commonly admitted that the expression of STRO-1 in a cell is indicative of a cell that is in a substantially non-differentiated state and the decrease of its expression of at least about 20% is indicative of a cell that has started a processes of differentiation but which may not result in the differentiation of the cell. A decrease of more than 50% would be indicative of the presence of a significant shift towards a differentiated state. A decrease of more than 70% would be indicative of the presence of a very important shift towards a differentiated state. A sustained decrease (e.g. for at least 96 h) of more than 50% or 70% would be indicative of the presence of an even more important shift towards a differentiated state.
Likewise, using the method detailed in the description, the RMSD of 87 GFR-binding peptide sequence representatives of the invention have been determined (Table 7) and correlated with the expression of STRO-1 after grafted on a PET surface via a procedure as already described above. SEQ ID NO: 1 to 49 were tested in combination with a bioactive carrier as defined above in the Examples Section (i.e. titanium, ceramics, PEEK, hydrogel, etc. . . . ), whereas SEQ ID NO: 1143 to 1180 were tested in solution.

Point of comparison: “VPAGQSPISILYI (CVPAGQSPISILYI; GFR-binding peptide) [SEQ ID NO: 46]”, STRO-1 expression 20%. Against it:
- AVPKASSAPTKLEPLPIVYY [SEQ ID NO: 36] — higher, 21%
- KIPKASSVSQELEPLTILYY [SEQ ID NO: 37] — lower, 17%
- STPPTSSVPTRLSAISMLYL [SEQ ID NO: 3] — lower, 19%
- TVPKPSSAPTQLSAISMLYL [SEQ ID NO: 18] — higher, 23%
- VPAEESPISILYI (CVPAEESPISILYI; GFR-binding peptide) [SEQ ID NO: 48] — higher, 21%

Same assay, conditions: SEQ ID NO: 1143 to 1180 tested in solution

Point of comparison: “STPPTSSVPTEVSPINTLYF (GFR-binding peptide) [SEQ ID NO: 1166]”, STRO-1 expression 19%. Against it:
- STPPTSSAPVGQSPISMLYI (GFR-binding peptide) [SEQ ID NO: 1162] — the same, 19%
- STPPTSSSRVQLSAISMLYL (GFR-binding peptide) [SEQ ID NO: 1154] — lower, 15%
- STPPTSSTPTKMSNITTQIM (GFR-binding peptide) [SEQ ID NO: 1175] — higher, 27%
- STPPTSSVPTELSPISTLYK (GFR-binding peptide) [SEQ ID NO: 1147] — higher, 21%
- STPPTSSVSQKMKPLSILYV (GFR-binding peptide) [SEQ ID NO: 1170] — higher, 25%

Same assay, conditions: grafted on a PET surface

Point of comparison: “TPTYSRPVQKAELTR (Previously reported sequence) [SEQ ID NO: 1091, reference compound]”, STRO-1 expression 97%. Against it:
- SRVLPIVVQGYVPVQDTKFLGIYYVIGPIIARVILSSSSAISSLNKS (Previously reported sequence) [SEQ ID NO: 1138, reference compound] — lower, 84%
- SSVPAVCSATSATGPYSSGSVEVTFDVYATTVY (Previously reported sequence) [SEQ ID NO: 1116, reference compound] — lower, 92%
- SSVPAVCSATSATGPYSTATNTVVVFDVYATTVY (SSVPAVCSATSATGPYSTATNTVWFDVYATTVY; Previously reported sequence) [SEQ ID NO: 1117, reference compound] — lower, 91%
- SVPAVCSATSATGPYSSVTVTSWPSIVATGGTT (Previously reported sequence) [SEQ ID NO: 1114, reference compound] — lower, 92%
- SVPAVCSATSATGPYSTATNTVVVPSIVATGGTT [SEQ ID NO: 1115, reference compound] — lower, 92%
- TCCVPELSAISMLYLDEN (Previously reported sequence) [SEQ ID NO: 1131, reference compound] — lower, 84%
- TKPLSSLLFPNWNTTTTPTPPRP (Previously reported sequence) [SEQ ID NO: 1101, reference compound] — lower, 91%
- TLXPIVSSXNPSPISFRXIKILLHDLEVVPFPKSRVR (not fully specified; X: residue not identified in the source; ends and bridges not checked) [SEQ ID NO: 1107, reference compound] — lower, 84%
- TPTVVSATSL (Previously reported sequence) [SEQ ID NO: 1111, reference compound] — higher, 98%
- VEQLSNMVVK (Previously reported sequence) [SEQ ID NO: 1086, reference compound] — higher, 98%
- VGAAWWLREQGSPINTLAVPA (Previously reported sequence) [SEQ ID NO: 1103, reference compound] — lower, 88%
- VHLLKPHAVPKACCAPTKLSATSVLYYDSSNNVILRKHRNMVVRACGCH (Previously reported sequence) [SEQ ID NO: 1118, reference compound] — lower, 88%
- VPTELSPISLLYLDEFEKVTLKNYQDMVVDG (Previously reported sequence) [SEQ ID NO: 1110, reference compound] — lower, 87%
- VPTKLEPISVLYKDDMGVPTLKYHYEGMAVSECGCR (Previously reported sequence) [SEQ ID NO: 1105, reference compound] — lower, 81%
- VPTKLSPISILYKDDMGVPTYKFKYEGMSVAECGCR (Previously reported sequence) [SEQ ID NO: 1109, reference compound] — lower, 82%
- VPTKLSPISILYLDKGVVTYKFKYEGMSVAECGCR (Previously reported sequence) [SEQ ID NO: 1108, reference compound] — lower, 80%
